The source made the active and inactive calls. No cut-off for these calls is given here.
Columns and labels:
[1] = target: T1, Discoidin domain-containing receptor 2 (Homo sapiens) (UniProt Q16832); test: Inhibition of DDR2 (unknown origin) assessed as remaining activity at 1 uM using fluorescein-poly GAT as substrate in presence of ATP by TR-FRET assay relative to control
T1 sequence (whole entry): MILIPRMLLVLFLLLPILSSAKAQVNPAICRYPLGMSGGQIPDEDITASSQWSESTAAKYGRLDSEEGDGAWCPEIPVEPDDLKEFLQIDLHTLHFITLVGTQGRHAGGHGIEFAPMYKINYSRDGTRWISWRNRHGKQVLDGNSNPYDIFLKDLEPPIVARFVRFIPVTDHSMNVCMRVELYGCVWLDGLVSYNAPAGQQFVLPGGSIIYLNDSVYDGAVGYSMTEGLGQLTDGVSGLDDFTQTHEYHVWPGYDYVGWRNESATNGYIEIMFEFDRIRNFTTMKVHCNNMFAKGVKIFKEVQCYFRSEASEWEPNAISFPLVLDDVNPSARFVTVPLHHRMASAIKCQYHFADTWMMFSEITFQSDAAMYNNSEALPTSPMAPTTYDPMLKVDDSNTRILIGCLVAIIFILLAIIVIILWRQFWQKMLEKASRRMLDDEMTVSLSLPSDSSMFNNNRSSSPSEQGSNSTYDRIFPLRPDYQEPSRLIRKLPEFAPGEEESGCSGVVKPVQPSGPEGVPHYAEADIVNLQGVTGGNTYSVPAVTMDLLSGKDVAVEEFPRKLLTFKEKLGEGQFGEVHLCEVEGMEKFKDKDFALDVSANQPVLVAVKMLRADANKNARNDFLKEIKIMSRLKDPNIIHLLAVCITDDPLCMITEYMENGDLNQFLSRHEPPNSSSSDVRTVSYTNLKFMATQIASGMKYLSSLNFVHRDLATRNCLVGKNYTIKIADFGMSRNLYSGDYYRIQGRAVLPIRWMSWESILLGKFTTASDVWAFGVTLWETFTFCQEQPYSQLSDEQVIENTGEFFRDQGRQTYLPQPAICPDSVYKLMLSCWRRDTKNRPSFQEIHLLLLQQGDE

[2] = target: High affinity nerve growth factor receptor (Homo sapiens) (UniProt P04629); test: Inhibition of TRK-A (unknown origin) assessed as remaining activity at 1 uM using fluorescein-poly GAT as substrate in presence of ATP by TR-FRET assay relative to control
[3] = target: BDNF/NT-3 growth factors receptor (Homo sapiens) (UniProt Q16620); test: Inhibition of TRK-B (unknown origin) assessed as remaining activity at 1 uM using fluorescein-poly GAT as substrate in presence of ATP by TR-FRET assay relative to control
[4] = target: NT-3 growth factor receptor (Homo sapiens) (UniProt Q16288); test: Inhibition of TRK-C (unknown origin) assessed as remaining activity at 1 uM using fluorescein-poly GAT as substrate in presence of ATP by TR-FRET assay relative to control
[5] = target: T2, Discoidin domain-containing receptor 2 (Homo sapiens, UniProt Q16832); test: Inhibition of DDR2 (unknown origin)
T2 sequence (Q16832 whole entry): T1 sequence (whole entry)

[6] = tested on: A549; test: Antiproliferative activity against human A549 cells incubated for 72 hrs by MTT assay; settings: A549, 72 h
[7] = Antiproliferative activity against human SPCA1 cells incubated for 72 hrs by MTT assay; settings: SPCA1, 72 h
[8] = tested on: NCI-H1975; test: Antiproliferative activity against human NCI-H1975 cells incubated for 72 hrs by MTT assay; settings: NCI-H1975, 72 h
[9] = tested on: A549; test: Effect on DDR1 level in human A549 cells at 50 to 200 nM by Western blotting analysis; type: functional, cell-based; settings: dose 50-200 nM
[10] = tested on: A549; test: Effect on ERK1/2 level in human A549 cells at 50 to 200 nM by Western blotting analysis; type: functional, cell-based; settings: dose 50-200 nM
[11] = tested on: A549; test: Effect on AKT1 level in human A549 cells at 50 to 200 nM by Western blotting analysis; type: functional, cell-based; settings: dose 50-200 nM
[12] = tested on: A549; test: Antiproliferative activity against human A549 cells transfected with DDR1 siRNA incubated for 72 hrs by MTT assay; type: functional, cell-based
[13] = target: Mitogen-activated protein kinase; ERK1/ERK2 (Homo sapiens) (UniProt P27361+P28482); test: Inhibition of ERK1/2 phosphorylation in human A549 cells at 50 to 200 nM by Western blotting analysis; type: cell-based; settings: dose 50-200 nM
[14] = target: RAC-alpha serine/threonine-protein kinase (Homo sapiens) (UniProt P31749); test: Inhibition of Akt1 phosphorylation in human A549 cells at 50 to 200 nM by Western blotting analysis; type: cell-based; settings: dose 50-200 nM
[15] = tested on: A549; test: Inhibition of epithelial-to-mesenchymal transition in human A549 cells assessed as upregulation of E-cadherin protein expression at 50 to 200 nM by Western blotting analysis; type: functional, cell-based; settings: dose 50-200 nM
[16] = tested on: A549; test: Inhibition of epithelial-to-mesenchymal transition in human A549 cells assessed as downregulation of N-cadherin protein expression at 50 to 200 nM by Western blotting analysis; type: functional, cell-based; settings: dose 50-200 nM
[17] = tested on: A549; test: Inhibition of cell migration in human A549 cells at 50 to 200 nM by transwell assay; type: functional, cell-based; settings: dose 50-200 nM
[18] = tested on: A549; test: Inhibition of epithelial-to-mesenchymal transition in human A549 cells assessed as downregulation of N-cadherin protein expression at 200 nM by laser confocal microscopy analysis; type: functional, cell-based
[19] = tested on: A549; test: Inhibition of epithelial-to-mesenchymal transition in human A549 cells assessed as upregulation of E-cadherin protein expression at 200 nM by laser confocal microscopy analysis; type: functional, cell-based
[20] = tested on: A549; test: Antitumor activity against human A549 cells xenografted in SPF BALB/c nude mouse assessed as tumor growth inhibition at 30 mg/kg, ip administered for 14 days; type: functional, organism-based; settings: time 14.0 day
[21] = Toxicity in SPF BALB/c nude mouse xenografted with human A549 cells assessed as weight loss at 30 mg/kg, ip administered for 14 days; type: organism-based; settings: in vivo, 336 h, time 14 day
[22] = tested on: A549; test: Antitumor activity against human A549 cells xenografted in SPF BALB/c nude mouse assessed as reduction in Ki-67 expression at 30 mg/kg, ip administered for 14 days by immunohistochemistry analysis; type: functional, organism-based; settings: time 14.0 day
[23] = tested on: A549; test: Antitumor activity against human A549 cells xenografted in SPF BALB/c nude mouse assessed as reduction in cell growth ratio at 30 mg/kg, ip administered for 14 days by TUNEL staining based immunohistochemistry analysis; type: functional, organism-based; settings: time 14.0 day
[24] = tested on: Mus musculus; test: In vivo inhibition of DDR1 phosphorylation in SPF BALB/c nude mouse xenografted with human A549 cells at 30 mg/kg, ip administered for 14 days; type: functional, organism-based; settings: time 14.0 day
[25] = tested on: NIH3T3; test: Inhibition of TGF-beta1 induced mouse NIH3T3 cells activation assessed as reduction in collagen-I accumulation at 3 to 6 uM preincubated with TGF-beta1 followed by compound addition by immunofluorescence staining based assay; type: functional, cell-based; settings: dose 3-6 µM
[26] = tested on: NIH3T3; test: Inhibition of TGF-beta1 induced mouse NIH3T3 cells activation assessed as reduction in alpha-SMA level at 3 to 6 uM preincubated with TGF-beta1 followed by compound addition by immunofluorescence staining based assay; type: functional, cell-based; settings: dose 3-6 µM
[27] = tested on: Mus musculus; test: Antifibrotic activity against bleomycin-induced C57BL/6 mouse model of pulmonary fibrosis assessed as increase in animal survival at 15 mg/kg, ip administered once daily for 21 days; type: functional, organism-based; settings: time 21.0 day
[28] = tested on: Mus musculus; test: Antifibrotic activity against bleomycin-induced C57BL/6 mouse model of pulmonary fibrosis assessed as increase in animal survival at 30 mg/kg, ip administered once daily for 21 days; type: functional, organism-based; settings: time 21.0 day
[29] = tested on: Mus musculus; test: Antifibrotic activity against bleomycin-induced C57BL/6 mouse model of pulmonary fibrosis assessed as reduction in total cell count in BALF at 30 mg/kg, ip administered once daily for 21 days; type: functional, organism-based; settings: time 21.0 day
[30] = tested on: Mus musculus; test: Antifibrotic activity against bleomycin-induced C57BL/6 mouse model of pulmonary fibrosis assessed as reduction in neutrophil count in BALF at 30 mg/kg, ip administered once daily for 21 days; type: functional, organism-based; settings: time 21.0 day
[31] = tested on: Mus musculus; test: Antifibrotic activity against bleomycin-induced C57BL/6 mouse model of pulmonary fibrosis assessed as reduction in inflammatory cytokines levels in BALF at 30 mg/kg, ip administered once daily for 21 days; type: functional, organism-based; settings: time 21.0 day
[32] = tested on: Mus musculus; test: Antifibrotic activity against bleomycin-induced C57BL/6 mouse model of pulmonary fibrosis assessed as reduction in collagen hyperplasia at 30 mg/kg, ip administered once daily for 21 days; type: functional, organism-based; settings: time 21.0 day
[33] = tested on: Mus musculus; test: Antifibrotic activity against bleomycin-induced C57BL/6 mouse model of pulmonary fibrosis assessed as reduction in morphological changes at 30 mg/kg, ip administered once daily for 21 days by H and E staining based assay; type: functional, organism-based; settings: time 21.0 day
[34] = tested on: Mus musculus; test: Antifibrotic activity against bleomycin-induced C57BL/6 mouse model of pulmonary fibrosis assessed as reduction in alpha-SMA level in pulmonary tissue at 30 mg/kg, ip administered once daily for 21 days by immunofluorescence staining based assay; type: functional, organism-based; settings: time 21.0 day
[35] = tested on: Mus musculus; test: Antifibrotic activity against bleomycin-induced C57BL/6 mouse model of pulmonary fibrosis assessed as reduction in collagen-I level in pulmonary tissue at 30 mg/kg, ip administered once daily for 21 days by immunofluorescence staining based assay; type: functional, organism-based; settings: time 21.0 day

Chain of NT-3 growth factor receptor (Homo sapiens) (Q16288 32-839 limits assumed): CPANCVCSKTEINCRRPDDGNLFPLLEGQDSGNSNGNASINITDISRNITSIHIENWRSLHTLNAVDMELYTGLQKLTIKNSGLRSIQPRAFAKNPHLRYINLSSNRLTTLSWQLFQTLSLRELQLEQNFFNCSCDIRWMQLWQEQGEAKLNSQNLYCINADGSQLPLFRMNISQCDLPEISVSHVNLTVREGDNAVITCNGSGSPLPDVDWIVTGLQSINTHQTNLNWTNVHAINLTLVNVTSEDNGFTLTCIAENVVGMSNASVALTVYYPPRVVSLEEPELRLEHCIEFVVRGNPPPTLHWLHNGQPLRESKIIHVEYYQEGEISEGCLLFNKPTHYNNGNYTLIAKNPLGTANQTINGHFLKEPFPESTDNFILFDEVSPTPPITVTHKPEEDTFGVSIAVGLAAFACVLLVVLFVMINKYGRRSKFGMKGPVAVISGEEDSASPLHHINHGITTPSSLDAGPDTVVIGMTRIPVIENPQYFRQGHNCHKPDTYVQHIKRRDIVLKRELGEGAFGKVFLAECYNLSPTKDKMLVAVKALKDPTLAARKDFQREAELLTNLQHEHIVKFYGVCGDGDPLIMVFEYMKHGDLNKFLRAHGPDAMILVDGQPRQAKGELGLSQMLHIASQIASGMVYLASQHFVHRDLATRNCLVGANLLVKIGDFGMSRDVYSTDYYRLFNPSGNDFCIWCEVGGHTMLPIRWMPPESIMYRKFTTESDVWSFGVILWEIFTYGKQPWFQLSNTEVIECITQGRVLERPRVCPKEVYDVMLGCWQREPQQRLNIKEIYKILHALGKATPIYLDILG
Chain of RAC-alpha serine/threonine-protein kinase (Homo sapiens) (P31749 whole entry): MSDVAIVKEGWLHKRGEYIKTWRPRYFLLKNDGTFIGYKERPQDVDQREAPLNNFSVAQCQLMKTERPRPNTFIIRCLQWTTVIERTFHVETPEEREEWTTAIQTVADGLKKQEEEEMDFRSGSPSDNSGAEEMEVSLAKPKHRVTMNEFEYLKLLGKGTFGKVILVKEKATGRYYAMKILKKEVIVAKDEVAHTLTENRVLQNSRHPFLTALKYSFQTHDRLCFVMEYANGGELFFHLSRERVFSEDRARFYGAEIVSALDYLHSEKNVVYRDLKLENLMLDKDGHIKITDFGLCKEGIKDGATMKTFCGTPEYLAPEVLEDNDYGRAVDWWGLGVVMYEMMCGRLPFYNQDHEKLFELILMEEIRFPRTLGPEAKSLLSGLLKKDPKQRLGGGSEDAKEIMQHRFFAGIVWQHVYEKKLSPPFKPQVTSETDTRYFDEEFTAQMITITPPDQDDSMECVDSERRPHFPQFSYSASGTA
Chain of BDNF/NT-3 growth factors receptor (Homo sapiens) (Q16620 32-822 limits assumed): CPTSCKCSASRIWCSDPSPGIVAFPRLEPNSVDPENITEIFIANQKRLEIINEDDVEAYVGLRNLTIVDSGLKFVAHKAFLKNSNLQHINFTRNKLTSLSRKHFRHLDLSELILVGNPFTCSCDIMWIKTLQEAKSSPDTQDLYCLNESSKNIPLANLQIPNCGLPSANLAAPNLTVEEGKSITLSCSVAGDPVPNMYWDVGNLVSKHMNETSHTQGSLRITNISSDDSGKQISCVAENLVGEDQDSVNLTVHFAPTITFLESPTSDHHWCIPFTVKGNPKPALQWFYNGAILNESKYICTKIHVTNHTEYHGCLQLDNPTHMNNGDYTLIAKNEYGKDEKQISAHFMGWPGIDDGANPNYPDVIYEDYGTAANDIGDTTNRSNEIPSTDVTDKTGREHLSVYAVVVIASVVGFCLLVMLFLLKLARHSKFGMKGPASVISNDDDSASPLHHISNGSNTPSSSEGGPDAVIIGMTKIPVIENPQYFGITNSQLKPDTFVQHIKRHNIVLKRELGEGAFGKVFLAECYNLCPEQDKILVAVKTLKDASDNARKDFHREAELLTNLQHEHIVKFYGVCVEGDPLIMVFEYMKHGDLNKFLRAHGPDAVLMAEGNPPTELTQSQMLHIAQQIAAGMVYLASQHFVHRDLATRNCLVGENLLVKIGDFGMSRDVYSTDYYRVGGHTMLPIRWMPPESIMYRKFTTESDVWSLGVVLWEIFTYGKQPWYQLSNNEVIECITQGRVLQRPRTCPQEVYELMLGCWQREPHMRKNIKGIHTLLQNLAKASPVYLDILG
Chain of Mitogen-activated protein kinase; ERK1/ERK2 (Homo sapiens) (P27361 whole entry, looked up): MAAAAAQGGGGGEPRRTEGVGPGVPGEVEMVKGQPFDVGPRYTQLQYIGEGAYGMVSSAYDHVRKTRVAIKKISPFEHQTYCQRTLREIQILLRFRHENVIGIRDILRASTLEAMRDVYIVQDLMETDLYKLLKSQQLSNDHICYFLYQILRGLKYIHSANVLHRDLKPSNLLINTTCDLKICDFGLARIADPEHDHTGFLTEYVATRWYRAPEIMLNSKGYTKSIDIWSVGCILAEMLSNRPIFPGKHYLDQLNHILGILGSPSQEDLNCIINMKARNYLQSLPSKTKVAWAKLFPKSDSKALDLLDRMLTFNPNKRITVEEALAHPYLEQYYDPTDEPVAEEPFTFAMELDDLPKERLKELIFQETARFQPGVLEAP
Chain of Mitogen-activated protein kinase; ERK1/ERK2 (Homo sapiens) (P28482 whole entry, looked up): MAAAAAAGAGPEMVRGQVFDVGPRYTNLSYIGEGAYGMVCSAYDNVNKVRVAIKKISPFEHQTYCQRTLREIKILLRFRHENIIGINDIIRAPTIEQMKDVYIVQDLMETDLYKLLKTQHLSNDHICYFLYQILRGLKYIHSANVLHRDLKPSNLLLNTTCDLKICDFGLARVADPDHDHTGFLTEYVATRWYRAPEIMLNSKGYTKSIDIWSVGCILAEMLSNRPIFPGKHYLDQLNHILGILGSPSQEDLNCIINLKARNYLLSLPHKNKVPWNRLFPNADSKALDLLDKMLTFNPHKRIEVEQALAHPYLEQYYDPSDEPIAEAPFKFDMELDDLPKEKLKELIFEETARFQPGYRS
Chain of High affinity nerve growth factor receptor (Homo sapiens) (P04629 33-796 limits assumed): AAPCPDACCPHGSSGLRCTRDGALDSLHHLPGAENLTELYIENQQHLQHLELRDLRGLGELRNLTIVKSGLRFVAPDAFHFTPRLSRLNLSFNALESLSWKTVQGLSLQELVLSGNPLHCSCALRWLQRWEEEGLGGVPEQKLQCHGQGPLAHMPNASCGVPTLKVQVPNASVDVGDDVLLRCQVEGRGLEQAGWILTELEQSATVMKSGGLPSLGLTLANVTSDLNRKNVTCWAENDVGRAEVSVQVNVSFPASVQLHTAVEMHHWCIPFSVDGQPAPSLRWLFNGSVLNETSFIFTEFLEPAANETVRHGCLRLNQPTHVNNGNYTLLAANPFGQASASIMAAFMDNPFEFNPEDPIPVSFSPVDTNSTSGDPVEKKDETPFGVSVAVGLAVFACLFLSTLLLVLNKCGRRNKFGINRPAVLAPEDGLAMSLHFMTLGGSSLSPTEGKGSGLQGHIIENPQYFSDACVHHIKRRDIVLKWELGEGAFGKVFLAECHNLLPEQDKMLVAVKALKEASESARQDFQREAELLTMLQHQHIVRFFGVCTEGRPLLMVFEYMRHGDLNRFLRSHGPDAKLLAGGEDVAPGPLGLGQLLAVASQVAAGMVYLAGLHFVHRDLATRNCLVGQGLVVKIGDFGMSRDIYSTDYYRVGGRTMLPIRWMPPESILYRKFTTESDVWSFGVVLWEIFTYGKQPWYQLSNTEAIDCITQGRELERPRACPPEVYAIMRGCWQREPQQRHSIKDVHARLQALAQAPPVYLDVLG

- Activity [1]: 13.7%
- Activity [2]: 84.9%
- Activity [3]: 106%
- Activity [4]: 78.6%
- IC50 [5]: 126 nM
- IC50 [6]: 1840 nM
- IC50 [8]: 1870 nM
- inhibition [13]: Active
- inhibition [14]: Active
Compound: CN1CCN(C(=O)Cn2cc(CNC(=O)Nc3ccc(F)cc3F)c3cc(F)ccc32)CC1
- IC50 [7]: 3510 nM
- Activity [9]: inactive
- Activity [10]: inactive
- Activity [11]: inactive
- Activity [12]: inactive
- inhibition [15]: Active
- inhibition [16]: Active
- inhibition [17]: Active
- inhibition [18]: Active
- inhibition [19]: Active
- Activity [20]: Active
- Activity [21]: Non-Toxic
- Activity [22]: Active
- Activity [23]: Active
- inhibition [24]: Active
- inhibition [25]: Active
- inhibition [26]: Active
- Activity [27]: Active
- Activity [28]: Active
- Activity [29]: Active
- Activity [30]: Active
- Activity [31]: Active
- Activity [32]: Active
- Activity [33]: Active
- Activity [34]: Active
- Activity [35]: Active

From ChEMBL document CHEMBL5528029, “Design, synthesis, and biological evaluation of novel discoidin domain receptor inhibitors for the treatment of lung adenocarcinoma and pulmonary fibrosis” (Eur J Med Chem, 2024)
